Experimental data reported in patent publication US20230158025A1 (UNIVERSITY OF UTAH RESEARCH FOUNDATION, priority 2020, published 2023).
Like-named read-outs stand apart in the source and are kept apart here.

Assays:
recombinant human GALK1 = recombinant human GALK1 (Homo sapiens, UniProt P51570); assay: hGALK1 biochemical activity assay (Kinase-Glo Plus, ATP depletion)
Outline: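 Recombinant human or mouse GALK1 (5 nM, with 100 μM galactose, in the added enzyme solution) was run with ATP (35 μM in the substrate solution) in HEPES pH 8.0 buffer. Compounds were tested at 11 1/3-step concentrations from 57.4 μM to 0.97 nM. After 1 h at room temperature, remaining ATP was read by Kinase-Glo Plus luminescence.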

recombinant mouse GALK1 = recombinant mouse GALK1 (Mus musculus, UniProt Q9R0N0); assay: mGALK1 biochemical activity assay (Kinase-Glo Plus, ATP depletion)
Outline: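 Recombinant GALK1 (5 nM) with 100 μM galactose; GALK1 turnover read as ATP depletion by Kinase-Glo Plus luminescence. Reaction ran 1 h at room temperature before detection reagent was added.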

[1] = aqueous kinetic solubility
[2] = rat microsomal stability (RLM); details: microsomal half-life
[3] = Tables 2-15, 35 μM ATP, 100 μM galactose, 1 h, bracketed figure after some values (e.g. −1.2) is undefined and not reported, read-out: hGALK IC50
[4] = recombinant human GALK1, Kinase-Glo Plus ATP depletion, read-out: hGALK
[5] = Tables 2-15, 35 μM ATP, 100 μM galactose, 1 h, bracketed figure after some values is undefined and not reported, read-out: mGALK IC50
[6] = recombinant mouse GALK1, Kinase-Glo Plus ATP depletion, read-out: mGALK

recombinant human GALK1, sequence (P51570 whole entry): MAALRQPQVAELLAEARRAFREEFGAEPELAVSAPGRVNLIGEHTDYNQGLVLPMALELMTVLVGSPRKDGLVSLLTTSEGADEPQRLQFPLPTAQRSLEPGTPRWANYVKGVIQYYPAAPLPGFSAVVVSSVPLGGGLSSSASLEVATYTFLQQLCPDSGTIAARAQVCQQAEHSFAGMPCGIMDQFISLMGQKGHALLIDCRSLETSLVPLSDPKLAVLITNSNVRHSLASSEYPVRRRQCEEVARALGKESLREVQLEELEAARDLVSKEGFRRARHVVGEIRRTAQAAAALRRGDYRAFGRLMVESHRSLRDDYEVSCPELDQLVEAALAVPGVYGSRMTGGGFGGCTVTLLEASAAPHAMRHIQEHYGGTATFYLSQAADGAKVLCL
recombinant mouse GALK1, sequence (Q9R0N0 whole entry): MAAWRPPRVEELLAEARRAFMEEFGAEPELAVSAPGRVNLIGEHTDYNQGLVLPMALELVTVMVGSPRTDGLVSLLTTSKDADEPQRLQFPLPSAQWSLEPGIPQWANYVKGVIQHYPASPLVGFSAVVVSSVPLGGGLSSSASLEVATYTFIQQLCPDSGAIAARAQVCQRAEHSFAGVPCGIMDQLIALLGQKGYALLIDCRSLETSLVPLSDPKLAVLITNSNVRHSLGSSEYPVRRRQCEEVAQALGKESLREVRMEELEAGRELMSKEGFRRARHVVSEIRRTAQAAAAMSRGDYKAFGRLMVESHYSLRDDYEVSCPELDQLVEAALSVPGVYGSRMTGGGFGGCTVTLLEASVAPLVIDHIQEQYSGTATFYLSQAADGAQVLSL

Structure (SMILES) | IC50 (recombinant human GALK1; [3]) [µM] | IC50 (recombinant human GALK1; [4]) [µM] | IC50 (recombinant mouse GALK1; [5]) [µM] | IC50 (recombinant mouse GALK1; [6]) [µM] | Perm. (1 × 10^−6 cm/sec) (PAMPA permeability) | Sol. [1] [µg/mL] | Metab. Stabil. (m) [2] [m]
CC1=C(C(=O)Nc2cc(C#N)ccn2)C(c2ccccc2Cl)N=C(Nc2nc3ccc(F)cc3o2)N1 (centres unmarked) [Compound 39, 4-(2-chlorophenyl)-N-(4-cyanopyridin-2-yl)-2-((6-fluorobenzo[d]oxazol-2-yl)amino)-6-methyl-1,4-dihydropyrimidine-5-carboxamide] | 4.32 | 4.32 | 4.85 | 4.85 | <6.8 1 × 10^−6 cm/sec | <1 | >30
CC1=C(C(=O)Nc2ccc(C#N)cn2)C(c2ccccc2Cl)N=C(Nc2nc3ccc(F)cc3o2)N1 (centres unmarked) [Compound 40, 4-(2-chlorophenyl)-N-(5-cyanopyridin-2-yl)-2-((6-fluorobenzo[d]oxazol-2-yl)amino)-6-methyl-1,4-dihydropyrimidine-5-carboxamide] |  | 13.7 |  | 13.7 | <7.8 1 × 10^−6 cm/sec | <1 | >30
CC1=C(C(=O)Nc2cc(-c3nn[nH]n3)ccn2)C(c2ccccc2Cl)N=C(Nc2nc3ccc(F)cc3o2)N1 (centres unmarked) [Compound 41, N-(4-(2H-tetrazol-5-yl)pyridin-2-yl)-4-(2-chlorophenyl)-2-((6-fluorobenzo[d]oxazol-2-yl)amino)-6-methyl-1,4-dihydropyrimidine-5-carboxamide] | 0.77 | 0.77 | 7.69 | 7.69 | <1 1 × 10^−6 cm/sec | 29.9 | >30
CC1=C(C(=O)Nc2ccccn2)C(c2ccccc2Cl)N=C(Nc2nc3ccc(F)cc3o2)N1 (centres unmarked) [Compound 43, 4-(2-chlorophenyl)-2-((6-fluorobenzo[d]oxazol-2-yl)amino)-6-methyl-N-(pyridin-2-yl)-1,4-dihydropyrimidine-5-carboxamide] |  | 4.32 |  | 10.9 | 171.11 1 × 10^−6 cm/sec | <1 | >30
CC1=C(C(=O)NCc2cnn(C)c2)C(c2ccccc2Cl)N=C(Nc2nc3ccc(F)cc3o2)N1 (centres unmarked) [Compound 44, 4-(2-chlorophenyl)-2-((6-fluorobenzo[d]oxazol-2-yl)amino)-6-methyl-N-((1-methyl-1H-pyrazol-4-yl)methyl)-1,4-dihydropyrimidine-5-carboxamide] |  | 1.72 |  | 12.2 | 942.87 1 × 10^−6 cm/sec | 13.7 | 26
CC1=C(C(=O)Nc2cc(C(=O)O)ccn2)[C@H](c2ccc(C)cc2Cl)N=C(Nc2nc3ccc(F)cc3o2)N1 [Compound 55, (R)-2-(4-(2-chloro-4-methylphenyl)-2-((6-fluorobenzo[d]oxazol-2-yl)amino)-6-methyl-1,4-dihydropyrimidine-5-carboxamido)isonicotinic acid] | 15 | 0.15 | 1.37 | 1.37 | <1 1 × 10^−6 cm/sec | >79 | >30
CC1=C(C(=O)Nc2cc(C(=O)O)ccn2)[C@@H](c2ccc(C)cc2Cl)N=C(Nc2nc3ccc(F)cc3o2)N1 [Compound 56, (S)-2-(4-(2-chloro-4-methylphenyl)-2-((6-fluorobenzo[d]oxazol-2-yl)amino)-6-methyl-1,4-dihydropyrimidine-5-carboxamido)isonicotinic acid] | 1.93 | 1.93 | 6.85 | 6.85 | <1 1 × 10^−6 cm/sec | 53.8 | >30
CC1=C(C(=O)Nc2cc(C(=O)O)ccn2)C(c2ccc(N3CCCC3)cc2Cl)N=C(Nc2nc3ccc(F)cc3o2)N1 (centres unmarked) [Compound 57, 2-(4-(2-chloro-4-(pyrrolidin-1-yl)phenyl)-2-((6-fluorobenzo[d]oxazol-2-yl)amino)-6-methyl-1,4-dihydropyrimidine-5-carboxamido)isonicotinic acid] | 1.09 | 4.09 | 10.9 | 10.9 | <1 1 × 10^−6 cm/sec | >87 | >30
CC1=C(C(=O)Nc2cc(C(=O)O)ccn2)C(c2ccc(N3CCCCC3)cc2Cl)N=C(Nc2nc3ccc(F)cc3o2)N1 (centres unmarked) [Compound 58, 2-(4-(2-chloro-4-(piperidin-1-yl)phenyl)-2-((6-fluorobenzo[d]oxazol-2-yl)amino)-6-methyl-1,4-dihydropyrimidine-5-carboxamido)isonicotinic acid] | 1.22 |  | 12.2 | 12.2 | 1.35 1 × 10^−6 cm/sec | 1.92 | >30
CC1=C(C(=O)Nc2cc(C(=O)O)ccn2)C(c2ccc(N3CCOCC3)cc2Cl)N=C(Nc2nc3ccc(F)cc3o2)N1 (centres unmarked) [Compound 59, 2-(4-(2-chloro-4-morpholinphenyl)-2-((6-fluorobenzo[d]oxazol-2-yl)amino)-6-methyl-1,4-dihydropyrimidine-5-carboxamido)isonicotinic acid] |  | 0.43 | 3.85 | 3.85 | 26.5 1 × 10^−6 cm/sec | >89 | >30
CC1=C(C(=O)Nc2cc(C(=O)O)ccn2)C(c2ccc(-n3cccn3)cc2Cl)N=C(Nc2nc3ccc(F)cc3o2)N1 (centres unmarked) [Compound 60, 2-(4-(2-chloro-4-(1H-pyrazol-1-yl)phenyl)-2-((6-fluorobenzo[d]oxazol-2-yl)amino)-6-methyl-1,4-dihydropyrimidine-5-carboxamido)isonicotinic acid] |  | 0.77 |  | 3.43 | <1 1 × 10^−6 cm/sec | >87 | >30
CC1=C(C(=O)Nc2cc(C(=O)O)ccn2)C(c2ccc(C(F)(F)F)cc2Cl)N=C(Nc2nc3ccc(F)cc3o2)N1 (centres unmarked) [Compound 61, 2-(4-(2-chloro-4-(trifluoromethyl)phenyl)-2-((6-fluorobenzo[d]oxazol-2-yl)amino)-6-methyl-1,4-dihydropyrimidine-5-carboxamido)isonicotinic acid] | 1.53 | 1.53 | 10.9 | 10.9 | <1 1 × 10^−6 cm/sec | 19.4 | >30
CC1=C(C(=O)Nc2cc(C(=O)O)ccn2)C(c2ccc(Br)cc2Cl)N=C(Nc2nc3ccc(F)cc3o2)N1 (centres unmarked) [Compound 62, 2-(4-(4-bromo-2-chlorophenyl)-2-((6-fluorobenzo[d]oxazol-2-yl)amino)-6-methyl-1,4-dihydropyrimidine-5-carboxamido)isonicotinic acid] | 1.09 | 1.09 | 3.85 | 3.85 | <1.7 1 × 10^−6 cm/sec | 2.4 | >30
CC1=C(C(=O)Nc2cc(C(=O)O)ccn2)C(c2cccc([N+](=O)[O-])c2Cl)N=C(Nc2nc3ccc(F)cc3o2)N1 (centres unmarked) [Compound 63, 2-(4-(2-chloro-3-nitrophenyl)-2-((6-fluorobenzo[d]oxazol-2-yl)amino)-6-methyl-1,4-dihydropyrimidine-5-carboxamido)isonicotinic acid] |  | 19.3 |  | 34.3 | <1 1 × 10^−6 cm/sec | >84 | >30
